Data taken from US20020164367A1, “Botanical drug for increasing immunity and decreasing side effects of chemotherapy” (priority 2001, published 2002).

Assays:
[1] = system: chick myocardial cell; assay: Survival rate of chick myocardial cells after Adriamycin induced damage (ABC immunoperoxidase staining); type: cell-based; conditions: Adriamycin 10μ for 24 hours after 4 days in culture; BDI 150 μg/ml
Description: Hears were removed from 11 days embryos and were dissociated at 37 C. for 45 minutes with 0.25% trypsin (sigma, type III), 0.025% collagenase (sigma, type I), and 0.005% pancreatin (NBCO) prepared in calcium and magnesium free saline G containing 4% chicken serum. Then the tissue was dispersed into a single cell suspension in culture medium containing 5 g/ml DNAse I (sigma). Viable cell counts were determined by hemocyometer counting. Cells were dispersed into 60 mm culture disher (surface area 2000 mm^2) at densities of 200 cells/mm^2.
Cultures were maintained in Ham's F-12K cln^− modified and supplemented with 5% fetal bovine serum. Tissue culture plates were incubated under at constant 5% CO2 and 95% air at 37° C. Cells counted—all cells were counted in 20 randomly selected fields across the entire dish. A Zeiss microscope 25× objective having a field of view of 0.32 mm^2 was used for cell counting.
Monoclonal antibodies (diluted 1:1000 in PBS/BSA) were used. Immunostaining procedure used modified method of immunoperoxidase staining as follows.
Culture plates were added antibody of cardiac myosin before 3 hours for staining. Then culture plates continuous incubated 3 hours at 37° C.
Cell determined by recording the color and the number of microscopic fields (250×). Normal cells were light green and dead cells were brown or very dark green. […]

[2] = system: lymphocytes; conditions: 3H-TdR 1 μCi/ml, PHA stimulated
Description: 0.2 ml of formic acid was then added for digestion till the precipitate was dissolved.

[3] = system: Interleukin-2 (rIL-2); assay: Effect of BDI on Interleukin-2 (rIL-2); type: in vivo; conditions: n=10
Excerpt: The methods of determination rIL-2 were regular.

[4] = system: bone marrow stem cells (CFU-S); conditions: mice, n=10
[5] = system: white blood cells; conditions: rats, 10 days of treatment
[6] = system: peritoneal macrophage; conditions: macrophages with phagocytized chick red blood cells per 100 macrophages; BDI 5.5 mg/kg ip daily for 5 days; cyclophosphamide 4.5 mg/kg ip
Description: Male mice weight 18-20 g were used in the experiments and were divided into treated (BDI) and control groups. The dosage of BDI was 5.5 mg/kg injected intraperitoneally. The control mice were injected with same volume of normal saline. These injections were repeated daily for 5 days, both treated and control group were injected intraperitoneally with cyclosphosphamide.
Added 0.02 ml of 5% washed chick red blood cell suspension to 0.5 ml of the peritoneal exudates. Shook gently to mix and incubate at 37° C. for 5 minutes. Dipped two cover slips, closed to each other, in the above mixture and incubated for 30 minutes for the migration of the macrophages along the cover slips, fixed and stained with Sharma stain. Examined microscopically for:
Phagocytic rate—number of macrophages with phagocytized chick red blood cells per 100 macrophages counted.

[7] = system: host cell; conditions: by weight; cited from earlier work
[8] = system: DNA viruses; conditions: by weight; cited from earlier work

In the case of `COc1cccc2c1C(=O)c1c(O)c3c(c(O)c1C2=O)C[C@@](O)(C(=O)CO)C[C@@H]3O[C@H]1C[C@H](N)[C@H](O)[C@H](C)O1` [Adriamycin], the “Survival rate (living/taotalx 100%)” value [1] was 36.0 ± 0.25 (*20) %.
With `O=P1(N(CCCl)CCCl)NCCCO1` (centres unmarked) [Cyclophosphamide] the “CPM ± SD (lymphoblastoid transformation)” value [2] was 600 ± 65 CPM, the “IL-2 (U/ml) ± SD” value [3] was 47.5 ± 5.5 U/ml and the “Mean (CFU-S ± SD)” value [4] was 7.6 ± 0.8. The “White blood cells x 10^3/cm^3 ± SD” value [5] was 6.0 ± 0.70 10^3/cm^3 and the “Phagocytic (rate ± SD)” value [6] was 8.5 ± 0.90.
For `Nc1ccn([C@@H]2O[C@H](CO)[C@@H](O)[C@@H]2O)c(=O)n1` [Cytarabine], the “Toxicity for host cell relative to Idoxuridine” value [7] is listed as 10 times and the “Effectiveness relative to Idoxuridine” value [8] is listed as “about 10 times”.
